Values of other authors as cited in publication PMC8448162, “Single- and Multiple-Ascending-Dose Study of the Safety, Tolerability, and Pharmacokinetics of the Polymyxin Derivative SPR206” (Antimicrobial Agents and Chemotherapy, 2021).

Legend:
kidney [1] = conditions: in vivo; cited from earlier work
[2] = test system: bacterial burden in CFU/g; set-up: method as in earlier work; conditions: 20 mg/kg, infection models in mice; cited from earlier work
kidney [3] = conditions: mouse model; cited from earlier work

Substance	incidence of acute kidney injury (kidney [1])	change from baseline in Log10 (bacterial burden in CFU/g) [2] [Log10]	histopathological changes in the kidney (kidney [3])
colistin	up to 60%	–	–
polymyxin B [reference compound]	–	−2.8	all animals
